Source: article PMC2920039 (Bioorganic & medicinal chemistry, 2010)

Experiments:
[1] = test system: CB2 receptor; conditions: cited from earlier work
[2] = cited from earlier work
[3] = test system: CB2 receptor; conditions: cited from earlier work; remark: listed apart in the source
[4] = biological target: CB2 receptor (Homo sapiens, UniProt P34972); type: binding
CB2 receptor (Homo sapiens, UniProt P34972), sequence (P34972 whole entry): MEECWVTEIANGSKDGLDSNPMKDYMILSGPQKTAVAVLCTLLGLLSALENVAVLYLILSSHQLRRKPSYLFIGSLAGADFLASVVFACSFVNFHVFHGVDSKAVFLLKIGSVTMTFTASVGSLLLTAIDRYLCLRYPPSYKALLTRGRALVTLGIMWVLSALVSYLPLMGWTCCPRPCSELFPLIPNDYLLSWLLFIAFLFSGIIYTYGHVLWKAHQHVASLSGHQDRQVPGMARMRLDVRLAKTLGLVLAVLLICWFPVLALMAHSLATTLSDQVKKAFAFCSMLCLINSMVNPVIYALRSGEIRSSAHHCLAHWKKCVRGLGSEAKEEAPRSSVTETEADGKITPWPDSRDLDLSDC

Structure (SMILES) | selectivity for the CB2 receptor [1] [fold] | Ki ([1]; read-out: Ki CB2) [nM] | activity in the mouse model of cannabinoid activity [2] | agonism at the CB2 receptor [3] | CB1/CB2 (ratio of Ki) [4]
CCCCCCC(C)(C)c1cc(OC)c2c(c1)OC(C)(C)C1CC=C(C)CC21 (stereo not drawn) [1-methoxy-3-(dimethylheptyl)-•^8-THC] | 12 | 57 |  |  | 
CCCC(C)(C)c1ccc2c(c1)OC(C)(C)[C@@H]1CC=C(C)C[C@@H]21 [JWH-133] | 200 |  | inactive | full agonist | 
CCCCCCC(C)(C)c1ccc([C@H]2CCC[C@@H](O)C2)c(OC)c1 (relative stereo) [JWH-441, (1R*,3S*)3-[2-Methoxy-4-(1,1-dimethylheptyl)phenyl]cyclohexanol] |  |  |  |  | >12
